Experiments:
Type in all cases: in vivo, rat
vitamin A-deficient rats [1] = assay: Growth of vitamin A-deficient rats given the compounds orally in Wesson oil; details: for growth (weight change) of vitamin A-deficient rats: 83 pmoles/day oral in Wesson oil; for growth (weight change) of vitamin A-deficient rats / growth response of vitamin A-deficient rats: 5-day period; for activity relative to atRA in supporting growth of vitamin A-deficient rats: estimate from FIG. 4, 83 pmole/day, 5 days; for growth response of vitamin A-deficient rats: 166 pmoles/day oral in Wesson oil
Description: The first test was to determine if the esterified compounds when given orally could restore normal growth of vitamin A-deficient rats. For this study, Sprague-Dawley, weanling rats were obtained from Harlan (Indianapolis, Ind.). They were fed the purified vitamin A-deficient diet previously described (Suda et al., 1970, J. Nutr. 100:1049-1052) supplemented with vitamins D, E and K (White et al., 1998, Proc. Natl. Acad. Sci. USA 95:13459-13464). When the animals stopped growing and began to lose weight, they were administered the indicated doses per day dissolved in Wesson oil. Controls were given the Wesson oil alone (vehicle group). The weight change over the 5-day study period was analyzed by ANOVA, followed by a matrix of pairwise comparison probabilities using four post-hoc tests when the overall P value was less then 0.05. The post-hoc comparison tests included: Turkey HSD multiple comparisons, Sheffe test, Fisher's least-significant-difference test and the Bonferroni adjustment test.
Weanling male rats were obtained from the Harlan Company and were housed individually in hanging wire cages and fed the vitamin A-deficient diet described previously (Suda et al., 1970, J. Nutr. 100:1049-1052). At approximately 70 days of age, the animals began to show a leveling off of growth and began to show weight loss. At this time, they were used for the following studies: They were given either 0.1 ml of Wesson oil (vehicle) or the indicated dose of atRA dissolved in the vehicle or one of the derivatives at the indicated dose dissolved in the vehicle. Body weights were recorded daily and plotted as cumulative weight gain or loss over the study period as indicated on the graphs. A daily dose of 83 pmoles (25 μg/day) of atRA is near the minimum amount needed to produce normal growth in […] rats as compared to the vehicle controls that continue to lose weight (FIG. 1). […] When the dose was increased to 50 μg/day of atRA or 59.5 μg/day of the t-butyl derivative, as expected, the growth response was identical.

vitamin A-deficient rats [2] = assay: as above; details: daily oral dose (25 μg/day)
normal male rats = assay: Acute toxicity of atRA versus t-butyl-RA in normal male rats
Description: Two independent toxicity studies were carried out with the t-butyl-RA derivative. […] However, the difference in testes weights between the atRA and t-butyl-RA groups was not statistically significant due to rather large biological variability.
We next examined the actute toxicity of the t-butyl derivative as compared to the atRA derivative in two independent trails. In these experiments, normal male rats weighing approximately 250-300 grams were used. They were individually housed in cages and given Purina lab chow as well as water ad libitum. […] This is an extremely large dose, and represents at least 3,600 times the amount of the t-butyl derivative needed to support a physiological growth response in vitamin A-deficient rats. […] Another indication of toxicity is testes weight as illustrated in FIG. 7.

[3] = 1 mmole/kg/day for 5 days, second study (FIG. 6)

SMILES | growth (weight change) of vitamin A-deficient rats (vitamin A-deficient rats [1]) | daily dose near the minimum amount needed to produce normal growth (vitamin A-deficient rats [2]) | activity relative to atRA in supporting growth of vitamin A-deficient rats (vitamin A-deficient rats [1]) | growth response of vitamin A-deficient rats (vitamin A-deficient rats [1]) | growth response of vitamin A-deficient rats (vitamin A-deficient rats [1]; listed as t-butyl derivative) | apparent toxicity / outward symptoms (normal male rats; [3]) | body weight change (normal male rats; [3]) | body weight change (normal male rats; 1 mmole/kg/day, 7 days, first study (FIG. 5))
CC1=C(/C=C/C(C)=C/C=C/C(C)=C/C(=O)O)C(C)(C)CCC1 [atRA, all-trans-retinoic acid, reference compound] | superior to that of the cholesterol ester-fed group | ~83 nmol |  |  |  |  |  | 
CC1=C(/C=C/C(C)=C/C=C/C(C)=C/C(=O)O[C@H]2CC[C@@]3(C)C(=CCC4C3CC[C@@]3(C)C4CC[C@@H]3[C@H](C)CCCC(C)C)C2)C(C)(C)CCC1 (stereo partly drawn) [cholesterol ester, all-trans-retinoic acid cholesterol ester] | significantly enhanced growth compared to vehicle control animals |  | one-third |  |  |  |  | 
CC1=C(/C=C/C(C)=C/C=C/C(C)=C/C(=O)OC(C)(C)C)C(C)(C)CCC1 [t-butyl-RA, all-trans-retinoic acid tert-butyl ester] | did not differ significantly from that of the group fed an equal molar amount of atRA |  | equal to atRA in potency and efficacy | equivalent | identical | no apparent toxicity | equal body weight accumulation | enabled continued growth

— US20050085539A1, “Method of reducing toxicity of retinoids” (priority 2003, published 2005)
